In patent publication US20210161882A1, “DEPOT ADMINISTRATION OF ILOPERIDONE” (Vanda Pharmaceuticals Inc., priority 2018, published 2021):

Experiment: Crystalline iloperidone particle size determination (Malvern Mastersizer 2000 laser light scattering)
Format: physicochemical
Conditions: wet dispersion in saturated 0.1% Tween 80, average of n=2 trials, each the average of 5 acquisitions
Method: Crystalline iloperidone particle sizes are determined in accordance with the following example. The Malvern Mastersizer 2000 (Malvern Instruments, Ltd., Malvern, UK) laser light scattering particle size analyzer and Hydro 2000 (Malvern Instruments, Ltd., Malvern, UK) wet sample dispersion unit are turned on, allowing time for the laser to warm up, e.g., for about 30 minutes. The PC is turned on, Mastersizer 2000 software is opened, and a file is created for storing results. An instrument verification check is performed according to SGS SOP EQP-525-10 Operation Preventative Maintenance and Performance Verification of the Mastersizer 2000. A new file for results storage is created, and the device is configured for Existing SOP for iloperidone. The parameters listed under the SOP are verified to confirm accuracy, namely: sample material name, iloperidone depot for injection; refractive index, 1.53, absorption, 0.1; dispersant medium, saturate 0.1% Tween 80 (Sigma Aldrich Co., St. Louis, Mo.) with 0.1% w/v sample; refractive index, 1.33; result model, general purpose; particle shape, irregular; sensitivity, normal; pump speed, 2000 RPM; sample measurement time, 12 seconds (12,000 snaps); background measurement time, 12 seconds (12,000 snaps); size range, 0.020 to 2000.000 μm; aliquot per SOP, 1; number of measurement cycles, 5 (report average); obscuration limits, 10-20%. Verification is made that the outlet tube of the dispersion unit is into the waste tank, and the tank is not full; the waste container is emptied on an as needed basis. […]
Samples are prepared by saturating 0.1% Tween 80 (Sigma-Aldrich Co., St. Louis, Mo.) polysorbate 80 with 0.1% w/v crystalline iloperidone. […] The SOP is started with the parameters for the sample so that the instrument is ready to perform measurements as soon as the sample is introduced to the Hydro 2000 unit. […] Each sample is measured twice (out of one preparation).
The resulting histogram is then evaluated. […]

**Q.** For `COc1cc(C(C)=O)ccc1OCCCN1CCC(c2noc3cc(F)ccc23)CC1` [crystalline iloperidone, 1-[4-[3-[4-(6-flouro-1,2-benzisoxazol-3-yl)-1-piperidinyl]propoxy]-3-methoxyphenyl]ethanone], which “average Dv10” value is on record?
**A.** The value was 14-50 μm.

**Q.** What about the “average Dv50” value of the same compound?
**A.** The value was 91-118 μm.

**Q.** What about the “average Dv90” value of the same compound?
**A.** The value was 188-241 μm.
